We go through 22 compounds from PubChem BioAssay (NCI).

Test systems include OVCAR-8 ovarian; SNB-19 CNS; MOLT-4 leukemia; COLO 205 colon; U251 CNS; M14 melanoma; UACC-62 melanoma; TK-10 renal; A549 NSCLC.
Holding throughout (assay): NCI tumour cell line growth inhibition, 48 h

Where “and” joins values, the source holds several entries; their conditions need not be identical. Equal entries are not always repeated.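 Compound exposure: 48 hours, 5 concentrations, 96-well plates. GI50 marks 50% less growth. TGI is the concentration that stops growth completely.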

In the case of `CN(CCN(C)C(=O)CCOS(C)(=O)=O)C(=O)CCOS(C)(=O)=O`, the TGI with OVCAR-8 ovarian, in the test on SNB-19 CNS, with MOLT-4 leukemia, in the test with COLO 205 colon, with U251 CNS and with M14 melanoma was over 100 µM each time. Moreover, the TGI in the test on UACC-62 melanoma, in the test on TK-10 renal and with A549 NSCLC was over 100 µM in each case.

Turning to `CCOC(=O)[C@H]1Nc2ccc(Cl)cc2[C@H]2c3ccccc3O[C@H]21`, the TGI with OVCAR-8 ovarian, in the test with SNB-19 CNS, in the test with MOLT-4 leukemia, in the test with COLO 205 colon, in the test with U251 CNS and with M14 melanoma was over 100 µM in each case. Further, the TGI in the test on UACC-62 melanoma, with TK-10 renal and in the test with A549 NSCLC was over 100 µM throughout.

On to `NC1=C(Cl)C(=O)c2ccccc2C1=O`, for which the TGI in the test on OVCAR-8 ovarian is 27.8 µM; in the test on SNB-19 CNS it was 24.2 µM; with MOLT-4 leukemia, 22.4 µM; with COLO 205 colon, 30.8 µM; with U251 CNS, 13.9 µM; in the test on M14 melanoma, 3.26 µM. The results for the TGI in the test with UACC-62 melanoma, in the test on TK-10 renal and in the test with A549 NSCLC were 2.76 µM, 49 µM and 8.44 µM, respectively.

As for `O=CN1CCN(C=S)CC1`, the TGI with OVCAR-8 ovarian, in the test on SNB-19 CNS, in the test on MOLT-4 leukemia, in the test with COLO 205 colon, in the test with U251 CNS and in the test on M14 melanoma was over 100 µM in each case. The TGI with UACC-62 melanoma, with TK-10 renal and in the test with A549 NSCLC was over 100 µM throughout.

Turning to `Clc1cc(Cl)cc(Nc2nc3ccccc3nc2-c2cccs2)c1`, the TGI in the test on OVCAR-8 ovarian is 27 µM; with MOLT-4 leukemia it was over 100 µM; with COLO 205 colon, 32.9 µM; in the test with TK-10 renal it was 75.6 µM; with A549 NSCLC it was over 100 µM.

For the compound `NC(=O)c1c2c(cc3c(=O)c4ccccc4[nH]c13)CCCC2`, the TGI in the test with OVCAR-8 ovarian was over 100 µM; in the test with SNB-19 CNS, over 100 µM; in the test on MOLT-4 leukemia it was over 80.7 µM; with COLO 205 colon, over 100 µM; in the test with U251 CNS, over 100 µM; in the test on M14 melanoma it was over 100 µM. In addition, the TGI with UACC-62 melanoma, with TK-10 renal and in the test with A549 NSCLC was over 100 µM throughout.

For the compound `O=C(O)c1ccc(C2C3C=CC(C3)C2[N+](=O)[O-])cc1` (stereo not given), the TGI with OVCAR-8 ovarian, in the test on SNB-19 CNS, in the test on MOLT-4 leukemia, with COLO 205 colon, with U251 CNS and with M14 melanoma was over 100 µM in each case. In addition, the TGI in the test with UACC-62 melanoma, in the test with TK-10 renal and in the test with A549 NSCLC was over 100 µM each time.

As for `C=CCN(CC=C)CC(C(C)=O)C(c1ccccc1)c1c(O)c2ccccc2oc1=O` (stereo not given), the TGI with OVCAR-8 ovarian, in the test with SNB-19 CNS, in the test with MOLT-4 leukemia, with COLO 205 colon, in the test with U251 CNS and in the test with M14 melanoma was over 100 µM each time. In addition, the TGI in the test on UACC-62 melanoma, with TK-10 renal and with A549 NSCLC was over 100 µM each time.

With `CCOC(=O)C(=O)Nc1ccc(Cl)c(C(F)(F)F)c1`, the TGI in the test with OVCAR-8 ovarian, with SNB-19 CNS, with MOLT-4 leukemia, in the test on COLO 205 colon, with U251 CNS and in the test on M14 melanoma was over 100 µM throughout. Also, the TGI with UACC-62 melanoma, in the test on TK-10 renal and in the test with A549 NSCLC was over 100 µM throughout.

As for `CC1CC2(CCC1OCc1ccccc1)OCCO2` (stereo not given), the TGI in the test with OVCAR-8 ovarian, with SNB-19 CNS, in the test with MOLT-4 leukemia, in the test with COLO 205 colon, in the test on U251 CNS and with M14 melanoma was over 100 µM throughout. The TGI with UACC-62 melanoma, in the test with TK-10 renal and in the test with A549 NSCLC was over 100 µM in each case.

As to `C[Si]12OCCCN(CCO1)CCO2`, the TGI with OVCAR-8 ovarian, in the test with SNB-19 CNS, in the test with MOLT-4 leukemia, in the test with COLO 205 colon, in the test with U251 CNS and in the test on UACC-62 melanoma was over 100 µM in each case. For the same compound, the TGI with TK-10 renal and in the test on A549 NSCLC was over 100 µM throughout.

In the case of `COc1ccccc1NC(=O)C1=C(C)NC(C)=C(C(=O)Nc2ccccc2OC)C1c1cccc2c1OCO2`, the TGI in the test on OVCAR-8 ovarian, with SNB-19 CNS, in the test on MOLT-4 leukemia, with COLO 205 colon, in the test on U251 CNS and in the test on M14 melanoma was over 100 µM each time. In addition, the TGI in the test with UACC-62 melanoma, in the test on TK-10 renal and in the test with A549 NSCLC was over 100 µM throughout.

For the compound `COc1ccc2c(c1)CCCC1C3=NCCC3(C)CSC21` (stereo not given), the TGI in the test on OVCAR-8 ovarian, in the test on SNB-19 CNS, in the test on MOLT-4 leukemia, with COLO 205 colon, in the test on U251 CNS and in the test with M14 melanoma was over 100 µM in each case. The TGI in the test with UACC-62 melanoma, in the test on TK-10 renal and in the test on A549 NSCLC was over 100 µM throughout.

As for `COc1ccccc1NC(=O)CC(=O)NNCC(=O)Nc1nnc(-c2ccccc2)o1`, the TGI in the test on OVCAR-8 ovarian, in the test on SNB-19 CNS, with MOLT-4 leukemia, with COLO 205 colon, in the test on U251 CNS and in the test on M14 melanoma was over 100 µM each time. The TGI in the test on UACC-62 melanoma, in the test on TK-10 renal and with A549 NSCLC was over 100 µM each time.

On to `CC(=O)OC12CC(C)C3(O)C4C=C(C)C(=O)[C@@]4(O)CC(CO)=C[C@H]3C1C2(C)C` (stereo not given in full), for which the GI50 was over 1000 µM in the test with OVCAR-8 ovarian; over 1000 µM in the test with SNB-19 CNS; 0.522 µM and 0.903 µM in the test on COLO 205 colon; over 1000 µM with U251 CNS; over 1000 µM in the test on M14 melanoma. The TGI with OVCAR-8 ovarian, in the test with SNB-19 CNS, in the test on MOLT-4 leukemia, in the test on U251 CNS, in the test on M14 melanoma and with UACC-62 melanoma was over 1000 µM in each case.

Consider `COC(=O)n1c(CBr)c(Br)c2ccccc21`, for which the TGI is over 100 µM with OVCAR-8 ovarian; over 100 µM in the test on SNB-19 CNS; 76.3 µM with MOLT-4 leukemia; over 100 µM in the test with COLO 205 colon; 82.4 µM in the test on U251 CNS; over 100 µM in the test with M14 melanoma. Moreover, the figures for the TGI in the test with UACC-62 melanoma, with TK-10 renal and in the test on A549 NSCLC were 86.4 µM, 94 µM and over 100 µM, respectively.

For the compound `CC1=CC2CC(C)C1(C)CCc1ccoc12` (stereo not given), the TGI with OVCAR-8 ovarian, in the test on SNB-19 CNS, with MOLT-4 leukemia, with COLO 205 colon, in the test on U251 CNS and with M14 melanoma was over 100 µM throughout. The TGI in the test with UACC-62 melanoma, in the test with TK-10 renal and with A549 NSCLC was over 100 µM in each case.

Regarding `CC(=O)O[C@H]1CC[C@@]2(C)C(=CC[C@@H]3C2CC[C@]2(C)Nc4[nH]ncc4CC32)C1` (stereo not given in full), the TGI in the test with OVCAR-8 ovarian is over 100 µM; in the test on MOLT-4 leukemia, 35.8 µM; in the test with U251 CNS, 30.7 µM; in the test with M14 melanoma, 42.9 µM; with UACC-62 melanoma it was 57.1 µM; in the test with TK-10 renal, over 100 µM. The TGI in the test on A549 NSCLC is over 100 µM.

Take `COc1ccc(C(O)/C(=C/n2ccnc2)c2ccccc2)cc1OC` (stereo not given): the TGI in the test on OVCAR-8 ovarian, with SNB-19 CNS, in the test on MOLT-4 leukemia, in the test with COLO 205 colon, in the test on U251 CNS and in the test with M14 melanoma was over 100 µM throughout. Also, the TGI with UACC-62 melanoma, with TK-10 renal and with A549 NSCLC was over 100 µM each time.

As to `O=C(O)CCCNS(=O)(=O)c1ccc2ccccc2c1`, the TGI with OVCAR-8 ovarian, with SNB-19 CNS, with MOLT-4 leukemia, in the test on COLO 205 colon, with U251 CNS and in the test on M14 melanoma was over 100 µM each time. Moreover, the TGI with UACC-62 melanoma, in the test with TK-10 renal and in the test with A549 NSCLC was over 100 µM throughout.

With `CCC[CH2][Sn]1([CH2]CCC)[O]C(=O)CN=Cc2ccccc2[O]1`, the GI50 with OVCAR-8 ovarian was 0.346 µM; in the test on SNB-19 CNS, 0.222 µM; with MOLT-4 leukemia, 0.212 µM; in the test with COLO 205 colon it was 0.298 µM; with U251 CNS, 0.305 µM; in the test with M14 melanoma it was 0.368 µM. The figures for the GI50 with UACC-62 melanoma, in the test with TK-10 renal and in the test on A549 NSCLC were 0.197 µM, 0.292 µM and 1.81 µM, respectively. Moreover, the TGI in the test on OVCAR-8 ovarian was found to be 1.39 µM; with SNB-19 CNS, 0.556 µM; with MOLT-4 leukemia it was 0.75 µM; with COLO 205 colon it was 1.27 µM; with U251 CNS, 1.09 µM; with M14 melanoma, 1.37 µM. Further, the results for the TGI with UACC-62 melanoma, with TK-10 renal and in the test on A549 NSCLC were 0.46 µM, 0.729 µM and 3.55 µM, respectively.

With `COc1cc2c(c(OC)c1OC)-c1ccc(SC)c(=O)cc1C(CC(=O)Oc1cccc(C#N)c1)C2` (stereo not given), the TGI in the test on OVCAR-8 ovarian is 6.88 µM; in the test with SNB-19 CNS, over 100 µM; in the test on MOLT-4 leukemia, over 100 µM; with COLO 205 colon, 3.41 µM; with M14 melanoma, over 88.8 µM; with UACC-62 melanoma, 5.32 µM. This compound also registered a TGI with A549 NSCLC of over 100 µM.
